# Paper PMC7265341, “Quantifying CDK inhibitor selectivity in live cells” (Nature Communications, 2020)
# Like-named read-outs stand apart in the source and are kept apart here.
# How the values were obtained:
# CDK11A/Cyclin L2 = molecular target: T1, CDK11A/Cyclin L2 (Homo sapiens, UniProt Q9UQ88); experiment: NanoBRET live-cell target engagement, CDK11A-NanoLuc/Cyclin L2 in HEK-293; format: binding; details: CDK11a/L2, read-out: Inhibition at 10µM (%)
# T1 sequence (Q9UQ88 1-783): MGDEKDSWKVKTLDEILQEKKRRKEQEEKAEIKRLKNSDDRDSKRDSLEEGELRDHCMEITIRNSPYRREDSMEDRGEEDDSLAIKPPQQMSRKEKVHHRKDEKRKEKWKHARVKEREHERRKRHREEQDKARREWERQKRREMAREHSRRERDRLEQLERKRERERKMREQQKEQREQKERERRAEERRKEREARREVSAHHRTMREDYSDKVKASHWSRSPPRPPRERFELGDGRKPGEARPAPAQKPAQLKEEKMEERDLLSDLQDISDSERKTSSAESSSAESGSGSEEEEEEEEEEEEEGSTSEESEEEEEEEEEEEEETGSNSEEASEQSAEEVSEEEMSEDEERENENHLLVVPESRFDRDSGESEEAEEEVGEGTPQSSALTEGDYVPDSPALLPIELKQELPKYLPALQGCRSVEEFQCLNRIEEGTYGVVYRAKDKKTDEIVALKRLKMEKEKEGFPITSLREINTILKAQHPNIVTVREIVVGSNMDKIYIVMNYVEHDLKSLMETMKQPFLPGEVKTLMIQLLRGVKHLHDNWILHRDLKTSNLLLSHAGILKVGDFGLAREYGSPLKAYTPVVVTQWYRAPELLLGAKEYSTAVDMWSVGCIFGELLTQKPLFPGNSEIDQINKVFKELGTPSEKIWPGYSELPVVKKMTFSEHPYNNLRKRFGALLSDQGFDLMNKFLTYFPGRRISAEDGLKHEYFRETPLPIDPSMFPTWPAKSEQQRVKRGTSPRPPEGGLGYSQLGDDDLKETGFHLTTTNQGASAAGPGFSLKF
# CDK13/Cyclin K = CDK13/Cyclin K (Homo sapiens, UniProt Q14004); experiment: NanoBRET live-cell target engagement, CDK13-NanoLuc/Cyclin K in HEK-293; format: binding; details: CDK13/K, read-out: Inhibition at 10µM (%)
# CDK15/Cyclin Y = CDK15/Cyclin Y (Homo sapiens, UniProt Q96Q40); experiment: NanoBRET live-cell target engagement, NanoLuc-CDK15/Cyclin Y in HEK-293; format: binding; details: CDK15/Y; for IC50: read-out: IC50; for inhibition at 10 µM: read-out: Inhibition at 10µM (%)
# CDK1/Cyclin E1 = CDK1/Cyclin E1 (Homo sapiens, UniProt P06493); experiment: NanoBRET live-cell target engagement, CDK1-NanoLuc/Cyclin E1 in HEK-293; format: binding; details: CDK1/E1, read-out: Inhibition at 10µM (%)
# CDK20/Cyclin H = CDK20/Cyclin H (Homo sapiens, UniProt Q8IZL9); experiment: NanoBRET live-cell target engagement, NanoLuc-CDK20/Cyclin H in HEK-293; format: binding; details: CDK20/H, read-out: Inhibition at 10µM (%)
# CDK18/Cyclin Y = CDK18/Cyclin Y (Homo sapiens, UniProt Q07002); experiment: NanoBRET live-cell target engagement, CDK18-NanoLuc/Cyclin Y in HEK-293; format: binding; details: CDK18/Y, read-out: Inhibition at 10µM (%)
# Chain of CDK18/Cyclin Y (Q07002 whole entry): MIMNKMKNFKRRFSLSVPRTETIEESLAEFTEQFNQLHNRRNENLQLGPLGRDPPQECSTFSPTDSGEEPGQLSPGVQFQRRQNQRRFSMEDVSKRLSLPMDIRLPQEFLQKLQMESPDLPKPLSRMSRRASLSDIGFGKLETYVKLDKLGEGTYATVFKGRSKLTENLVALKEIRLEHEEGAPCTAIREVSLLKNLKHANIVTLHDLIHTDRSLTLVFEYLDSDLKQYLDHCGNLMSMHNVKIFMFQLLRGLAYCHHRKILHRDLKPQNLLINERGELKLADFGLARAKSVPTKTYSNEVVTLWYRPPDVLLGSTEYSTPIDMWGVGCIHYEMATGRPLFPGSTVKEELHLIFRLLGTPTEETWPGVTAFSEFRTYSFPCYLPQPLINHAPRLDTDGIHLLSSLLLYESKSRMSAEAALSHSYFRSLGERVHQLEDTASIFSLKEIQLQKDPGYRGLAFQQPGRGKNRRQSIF
# Chain of CDK18/Cyclin Y (Q8ND76 whole entry partner): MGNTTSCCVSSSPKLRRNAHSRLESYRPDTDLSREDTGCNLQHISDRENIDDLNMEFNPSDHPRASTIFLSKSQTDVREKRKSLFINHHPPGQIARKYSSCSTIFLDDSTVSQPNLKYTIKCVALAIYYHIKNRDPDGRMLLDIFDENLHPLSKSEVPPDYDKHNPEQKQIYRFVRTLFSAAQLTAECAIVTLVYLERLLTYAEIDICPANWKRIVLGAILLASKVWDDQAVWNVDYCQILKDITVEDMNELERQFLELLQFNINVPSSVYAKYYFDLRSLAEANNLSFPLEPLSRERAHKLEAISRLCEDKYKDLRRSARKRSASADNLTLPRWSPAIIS
# CDK17/Cyclin Y = CDK17/Cyclin Y (Homo sapiens, UniProt Q00537); experiment: NanoBRET live-cell target engagement, CDK17-NanoLuc/Cyclin Y in HEK-293; format: binding; details: CDK17/Y, read-out: Inhibition at 10µM (%)
# Chain of CDK17/Cyclin Y (Q00537 whole entry): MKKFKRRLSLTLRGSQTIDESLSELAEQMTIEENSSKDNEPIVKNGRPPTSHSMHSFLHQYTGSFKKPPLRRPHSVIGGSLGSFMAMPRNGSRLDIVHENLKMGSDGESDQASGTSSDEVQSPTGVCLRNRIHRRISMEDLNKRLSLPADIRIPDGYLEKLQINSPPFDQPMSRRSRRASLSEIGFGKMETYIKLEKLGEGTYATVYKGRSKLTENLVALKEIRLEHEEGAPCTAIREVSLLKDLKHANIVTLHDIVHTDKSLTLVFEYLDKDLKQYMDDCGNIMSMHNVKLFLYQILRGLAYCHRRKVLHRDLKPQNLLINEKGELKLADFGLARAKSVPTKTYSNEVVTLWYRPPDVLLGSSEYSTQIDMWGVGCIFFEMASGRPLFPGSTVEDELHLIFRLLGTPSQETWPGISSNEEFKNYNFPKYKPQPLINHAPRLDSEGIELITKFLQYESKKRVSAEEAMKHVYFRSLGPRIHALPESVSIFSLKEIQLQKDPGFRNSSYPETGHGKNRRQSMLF
# Chain of CDK17/Cyclin Y (Q8ND76 whole entry partner): as the sequence (Q8ND76 whole entry partner) above
# CDK12/Cyclin K = CDK12/Cyclin K (Homo sapiens, UniProt Q9NYV4); experiment: NanoBRET live-cell target engagement, CDK12-NanoLuc/Cyclin K in HEK-293; format: binding
# Chain of CDK12/Cyclin K (Q9NYV4 1-1481 isoform Q9NYV4-2): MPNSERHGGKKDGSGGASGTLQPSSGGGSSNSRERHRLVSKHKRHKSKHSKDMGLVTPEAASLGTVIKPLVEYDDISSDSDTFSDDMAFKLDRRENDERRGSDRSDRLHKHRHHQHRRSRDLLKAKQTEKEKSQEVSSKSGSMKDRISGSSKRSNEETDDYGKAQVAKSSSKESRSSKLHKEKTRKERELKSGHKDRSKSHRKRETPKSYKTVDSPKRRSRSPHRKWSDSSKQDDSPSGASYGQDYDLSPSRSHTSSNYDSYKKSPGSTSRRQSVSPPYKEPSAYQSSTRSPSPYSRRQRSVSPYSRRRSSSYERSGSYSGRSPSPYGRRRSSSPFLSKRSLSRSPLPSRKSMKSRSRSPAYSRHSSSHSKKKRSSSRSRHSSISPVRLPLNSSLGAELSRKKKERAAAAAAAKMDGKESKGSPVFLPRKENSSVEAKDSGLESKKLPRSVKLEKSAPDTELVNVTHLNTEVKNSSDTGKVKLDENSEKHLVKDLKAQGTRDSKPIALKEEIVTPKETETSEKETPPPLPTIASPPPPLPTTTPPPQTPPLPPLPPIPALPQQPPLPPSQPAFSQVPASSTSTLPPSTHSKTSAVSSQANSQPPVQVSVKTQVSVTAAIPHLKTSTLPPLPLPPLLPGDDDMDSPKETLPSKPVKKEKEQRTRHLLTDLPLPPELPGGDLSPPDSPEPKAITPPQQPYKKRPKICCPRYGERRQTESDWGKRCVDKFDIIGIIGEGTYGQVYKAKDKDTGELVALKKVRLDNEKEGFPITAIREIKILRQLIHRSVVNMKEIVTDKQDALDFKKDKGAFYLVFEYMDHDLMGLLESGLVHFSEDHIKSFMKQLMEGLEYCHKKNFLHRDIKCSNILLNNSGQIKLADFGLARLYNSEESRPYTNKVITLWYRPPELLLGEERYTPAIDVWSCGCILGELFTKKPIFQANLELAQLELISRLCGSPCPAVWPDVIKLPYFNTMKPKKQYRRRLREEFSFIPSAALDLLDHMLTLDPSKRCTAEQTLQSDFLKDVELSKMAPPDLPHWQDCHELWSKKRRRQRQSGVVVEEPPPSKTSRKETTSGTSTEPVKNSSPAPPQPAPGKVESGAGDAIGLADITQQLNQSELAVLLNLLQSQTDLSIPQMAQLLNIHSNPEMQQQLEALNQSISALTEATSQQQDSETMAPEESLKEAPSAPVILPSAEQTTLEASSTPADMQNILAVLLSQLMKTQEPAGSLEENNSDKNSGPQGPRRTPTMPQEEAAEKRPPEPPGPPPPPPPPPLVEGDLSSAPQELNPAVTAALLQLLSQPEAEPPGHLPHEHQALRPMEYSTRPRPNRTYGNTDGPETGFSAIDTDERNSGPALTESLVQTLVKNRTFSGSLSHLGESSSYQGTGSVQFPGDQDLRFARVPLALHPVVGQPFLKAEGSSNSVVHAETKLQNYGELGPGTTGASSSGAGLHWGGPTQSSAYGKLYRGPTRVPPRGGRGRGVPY
# Chain of CDK12/Cyclin K (O75909 whole entry partner): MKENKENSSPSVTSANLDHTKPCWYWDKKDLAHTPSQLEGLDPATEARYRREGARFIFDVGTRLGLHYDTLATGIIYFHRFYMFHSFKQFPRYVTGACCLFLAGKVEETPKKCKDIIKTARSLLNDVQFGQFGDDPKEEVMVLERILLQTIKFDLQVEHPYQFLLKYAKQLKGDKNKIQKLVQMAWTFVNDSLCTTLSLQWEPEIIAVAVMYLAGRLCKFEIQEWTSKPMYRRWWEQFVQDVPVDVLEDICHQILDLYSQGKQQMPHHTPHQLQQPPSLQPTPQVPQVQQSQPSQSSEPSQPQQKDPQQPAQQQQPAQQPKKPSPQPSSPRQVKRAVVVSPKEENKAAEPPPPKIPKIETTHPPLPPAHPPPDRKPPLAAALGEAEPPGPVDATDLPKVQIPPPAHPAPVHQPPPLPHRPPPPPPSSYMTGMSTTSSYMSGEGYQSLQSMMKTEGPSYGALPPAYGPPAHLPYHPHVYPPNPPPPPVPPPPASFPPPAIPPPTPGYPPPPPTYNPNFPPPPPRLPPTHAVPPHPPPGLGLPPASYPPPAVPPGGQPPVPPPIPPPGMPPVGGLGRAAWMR
# CDK11B/Cyclin L2 = CDK11B/Cyclin L2 (Homo sapiens, UniProt P21127); experiment: NanoBRET live-cell target engagement, CDK11B-NanoLuc/Cyclin L2 in HEK-293; format: binding; details: CDK11b/L2, read-out: Inhibition at 10µM (%)
# CDK2/Cyclin E1 = CDK2/Cyclin E1 (Homo sapiens, UniProt P24941); experiment: NanoBRET live-cell target engagement, CDK2-NanoLuc/Cyclin E1 in HEK-293; format: binding; details: CDK2/E1, read-out: Inhibition at 10µM (%)
# CDK4/Cyclin D1 = CDK4/Cyclin D1 (Homo sapiens, UniProt P11802); experiment: NanoBRET live-cell target engagement, NanoLuc-CDK4/Cyclin D1 in HEK-293; format: binding; details: CDK4/D1, read-out: Inhibition at 10µM (%)
# CDK3/Cyclin E1 = CDK3/Cyclin E1 (Homo sapiens, UniProt Q00526); experiment: NanoBRET live-cell target engagement, CDK3-NanoLuc/Cyclin E1 in HEK-293; format: binding; details: CDK3/E1, read-out: Inhibition at 10µM (%)
# CDK8/Cyclin C = CDK8/Cyclin C (Homo sapiens, UniProt P49336); experiment: NanoBRET live-cell target engagement, NanoLuc-CDK8/Cyclin C in HEK-293; format: binding; details: CDK8/C, read-out: Inhibition at 10µM (%)
# CDK16/Cyclin Y = CDK16/Cyclin Y (Homo sapiens, UniProt Q00536); experiment: NanoBRET live-cell target engagement, CDK16-NanoLuc/Cyclin Y in HEK-293; format: binding; details: CDK16/Y; for IC50: read-out: IC50; for inhibition at 10 µM: read-out: Inhibition at 10µM (%)
# Chain of CDK16/Cyclin Y (Q00536 whole entry): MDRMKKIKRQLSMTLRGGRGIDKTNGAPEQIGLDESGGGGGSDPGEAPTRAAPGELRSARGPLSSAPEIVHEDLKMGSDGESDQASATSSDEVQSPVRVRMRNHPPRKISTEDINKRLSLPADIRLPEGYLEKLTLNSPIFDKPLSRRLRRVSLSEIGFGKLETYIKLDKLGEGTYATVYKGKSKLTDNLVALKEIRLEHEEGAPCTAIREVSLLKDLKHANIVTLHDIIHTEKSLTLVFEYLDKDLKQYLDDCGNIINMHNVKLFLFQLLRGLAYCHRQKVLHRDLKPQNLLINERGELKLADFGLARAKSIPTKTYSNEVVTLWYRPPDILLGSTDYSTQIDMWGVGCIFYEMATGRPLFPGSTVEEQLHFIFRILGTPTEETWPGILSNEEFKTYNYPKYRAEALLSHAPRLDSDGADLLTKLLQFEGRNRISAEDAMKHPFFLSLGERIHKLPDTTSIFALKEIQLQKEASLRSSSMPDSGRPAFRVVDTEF
# Chain of CDK16/Cyclin Y (Q8ND76 whole entry partner): as the sequence (Q8ND76 whole entry partner) above
# CDK10/Cyclin L2 = CDK10/Cyclin L2 (Homo sapiens, UniProt Q15131); experiment: NanoBRET live-cell target engagement, CDK10-NanoLuc/Cyclin L2 in HEK-293; details: read-out: Inhibition at 10µM (%), CDK10/L2
# CDK19/Cyclin C = CDK19/Cyclin C (Homo sapiens, UniProt Q9BWU1); experiment: NanoBRET live-cell target engagement, NanoLuc-CDK19/Cyclin C in HEK-293; details: read-out: Inhibition at 10µM (%), CDK19/C
# Chain of CDK19/Cyclin C (Q9BWU1 whole entry): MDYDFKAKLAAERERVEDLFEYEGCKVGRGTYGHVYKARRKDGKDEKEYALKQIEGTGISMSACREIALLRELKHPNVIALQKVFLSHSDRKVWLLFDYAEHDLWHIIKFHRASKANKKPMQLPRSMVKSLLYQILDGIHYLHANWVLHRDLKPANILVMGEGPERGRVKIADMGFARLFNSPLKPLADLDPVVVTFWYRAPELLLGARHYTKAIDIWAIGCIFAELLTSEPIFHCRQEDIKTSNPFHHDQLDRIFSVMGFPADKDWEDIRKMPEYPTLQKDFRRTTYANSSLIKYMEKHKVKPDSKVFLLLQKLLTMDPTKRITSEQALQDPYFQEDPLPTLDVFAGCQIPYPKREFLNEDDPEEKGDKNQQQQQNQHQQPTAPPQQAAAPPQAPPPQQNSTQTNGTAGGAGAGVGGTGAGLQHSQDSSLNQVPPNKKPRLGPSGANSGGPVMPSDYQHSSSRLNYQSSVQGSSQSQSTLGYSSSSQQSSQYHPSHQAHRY
# Chain of CDK19/Cyclin C (P24863 whole entry partner): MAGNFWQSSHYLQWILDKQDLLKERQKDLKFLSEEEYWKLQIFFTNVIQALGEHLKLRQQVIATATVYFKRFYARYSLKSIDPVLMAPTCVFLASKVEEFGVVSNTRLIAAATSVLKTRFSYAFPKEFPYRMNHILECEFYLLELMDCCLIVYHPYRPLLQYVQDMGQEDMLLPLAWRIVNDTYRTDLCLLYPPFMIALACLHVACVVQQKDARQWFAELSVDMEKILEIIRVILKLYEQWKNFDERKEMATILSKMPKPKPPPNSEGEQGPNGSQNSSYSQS
# CDK6/Cyclin D1 = CDK6/Cyclin D1 (Homo sapiens, UniProt Q00534); experiment: NanoBRET live-cell target engagement, NanoLuc-CDK6/Cyclin D1 in HEK-293; format: binding; details: for inhibition at 10 µM: read-out: Inhibition at 10µM (%)
# CDK9/Cyclin K = CDK9/Cyclin K (Homo sapiens, UniProt P50750); experiment: NanoBRET live-cell target engagement, NanoLuc-CDK9/Cyclin K in HEK-293; format: binding; details: CDK9/K, read-out: Inhibition at 10µM (%)
# CDK5/CDK5R1 = CDK5/CDK5R1 (Homo sapiens, UniProt Q00535); experiment: NanoBRET live-cell target engagement, CDK5-NanoLuc/CDK5R1 in HEK-293; format: binding; details: CDK5/CDK5R1, read-out: Inhibition at 10µM (%)
compound,measurement,setting,value
CNC(=O)c1nn(C)c2c1C(C)(C)Cc1cnc(Nc3ccc(N4CCN(C)CC4)cc3)nc1-2 [Milciclib],inhibition at 10 µM,CDK11A/Cyclin L2; average,22.7%
same,inhibition at 10 µM,CDK11A/Cyclin L2; experiment 1,20.3%
same,inhibition at 10 µM,CDK11A/Cyclin L2; experiment 2,25%
same,inhibition at 10 µM,CDK13/Cyclin K; average,13.7%
same,inhibition at 10 µM,CDK13/Cyclin K; experiment 1,15%
same,inhibition at 10 µM,CDK13/Cyclin K; experiment 2,12.5%
same,IC50,CDK15/Cyclin Y; average (± SEM where n=3),880 ± 60 nM
same,inhibition at 10 µM,CDK15/Cyclin Y; average,86%
same,IC50,CDK15/Cyclin Y; experiment 1,970 nM
same,inhibition at 10 µM,CDK15/Cyclin Y; experiment 1,83.8%
same,IC50,CDK15/Cyclin Y; experiment 2,898 nM
same,inhibition at 10 µM,CDK15/Cyclin Y; experiment 2,88.1%
same,IC50,CDK15/Cyclin Y; experiment 3,778 nM
same,inhibition at 10 µM,CDK1/Cyclin E1; average,61.1%
same,inhibition at 10 µM,CDK1/Cyclin E1; experiment 1,52.9%
same,inhibition at 10 µM,CDK1/Cyclin E1; experiment 2,69.2%
same,inhibition at 10 µM,CDK20/Cyclin H; experiment 1,50.1%
same,inhibition at 10 µM,CDK20/Cyclin H; experiment 2,36.3%
same,inhibition at 10 µM,CDK18/Cyclin Y; average,84.2%
same,inhibition at 10 µM,CDK18/Cyclin Y; experiment 1,83.1%
same,inhibition at 10 µM,CDK18/Cyclin Y; experiment 2,85.3%
same,inhibition at 10 µM,CDK17/Cyclin Y; average,87.8%
same,inhibition at 10 µM,CDK17/Cyclin Y; experiment 1,86.7%
same,inhibition at 10 µM,CDK17/Cyclin Y; experiment 2,88.9%
same,inhibition at 10 µM,"CDK12/Cyclin K; CDK12/K, experiment 1, read-out: Inhibition at 10µM (%)",16.8%
same,inhibition at 10 µM,"CDK12/Cyclin K; CDK12/K, experiment 2, read-out: Inhibition at 10µM (%)",10.6%
same,inhibition at 10 µM,"CDK12/Cyclin K; read-out: Inhibition at 10µM (%), CDK12/K, average",13.7%
same,inhibition at 10 µM,CDK11B/Cyclin L2; average,14.4%
same,inhibition at 10 µM,CDK11B/Cyclin L2; experiment 1,14.6%
same,inhibition at 10 µM,CDK11B/Cyclin L2; experiment 2,14.3%
same,inhibition at 10 µM,CDK2/Cyclin E1; average,76.6%
same,inhibition at 10 µM,CDK2/Cyclin E1; experiment 1,75.5%
same,inhibition at 10 µM,CDK2/Cyclin E1; experiment 2,77.7%
same,inhibition at 10 µM,CDK4/Cyclin D1; average,98.1%
same,inhibition at 10 µM,CDK4/Cyclin D1; experiment 1,98.8%
same,inhibition at 10 µM,CDK4/Cyclin D1; experiment 2,97.4%
same,inhibition at 10 µM,CDK3/Cyclin E1; average,77.7%
same,inhibition at 10 µM,CDK3/Cyclin E1; experiment 1,74.4%
same,inhibition at 10 µM,CDK3/Cyclin E1; experiment 2,80.9%
same,inhibition at 10 µM,CDK8/Cyclin C; average,16%
same,inhibition at 10 µM,CDK8/Cyclin C; experiment 1,44.2%
same,inhibition at 10 µM,CDK8/Cyclin C; experiment 2,-12.1%
same,IC50,CDK16/Cyclin Y; average (± SEM where n=3),300 ± 40 nM
same,IC50,CDK16/Cyclin Y; experiment 1,383 nM
same,inhibition at 10 µM,CDK16/Cyclin Y; experiment 1,86.4%
same,IC50,CDK16/Cyclin Y; experiment 2,260 nM
same,inhibition at 10 µM,CDK16/Cyclin Y; experiment 2,90.1%
same,IC50,CDK16/Cyclin Y; experiment 3,273 nM
same,inhibition at 10 µM,CDK10/Cyclin L2; average,30.6%
same,inhibition at 10 µM,CDK10/Cyclin L2; experiment 1,32.3%
same,inhibition at 10 µM,CDK10/Cyclin L2; experiment 2,28.9%
same,inhibition at 10 µM,CDK19/Cyclin C; average,19.2%
same,inhibition at 10 µM,CDK19/Cyclin C; experiment 1,44.9%
same,inhibition at 10 µM,CDK19/Cyclin C; experiment 2,-6.6%
same,IC50,"CDK6/Cyclin D1; CDK6/D1, average (± SEM where n=3), read-out: IC50",110 ± 20 nM
same,inhibition at 10 µM,"CDK6/Cyclin D1; CDK6/D1, average",96.3%
same,IC50,"CDK6/Cyclin D1; CDK6/D1, experiment 1, read-out: IC50",110 nM
same,inhibition at 10 µM,"CDK6/Cyclin D1; CDK6/D1, experiment 1",96.1%
same,IC50,"CDK6/Cyclin D1; CDK6/D1, experiment 2, read-out: IC50",83 nM
same,inhibition at 10 µM,"CDK6/Cyclin D1; CDK6/D1, experiment 2",96.5%
same,IC50,"CDK6/Cyclin D1; CDK6/D1, experiment 3, read-out: IC50",144 nM
same,IC50,"CDK6/Cyclin D1; live HEK-293, 2 h, mean ± S.E.M. (n=3) or mean (n=2), read-out: IC50 for CDK/cyclin complexes, CDK6/D1",110 ± 20 nM
same,inhibition at 10 µM,CDK9/Cyclin K; average,55.3%
same,inhibition at 10 µM,CDK9/Cyclin K; experiment 1,50.1%
same,inhibition at 10 µM,CDK9/Cyclin K; experiment 2,60.5%
same,inhibition at 10 µM,CDK5/CDK5R1; average,82.1%
same,inhibition at 10 µM,CDK5/CDK5R1; experiment 1,77.8%
same,inhibition at 10 µM,CDK5/CDK5R1; experiment 2,86.4%
